Reference: patent US20250145589A1, “PYRIDINE DERIVATIVE AND USE THEREOF” (SICHUAN HUIYU PHARMACEUTICAL CO., LTD., priority 2021, published 2025)
pIC50: −log10 of the molar value. Read-outs that look alike come from different tables or passages of the source.

Assays:
[1] = tested on: MIA PaCa-2 cells (KRAS G12C mutant); assay: MIA PaCa-2 cell anti-proliferation (CellTiter-Glo); format: cell-based; conditions: Homo sapiens, 72 h; MIA Paca-2 cells, 3 days, Table 7; read-out: MIA PaCa-2 (IC50)
Description: The number of viable cells was determined using the CellTiter-Glo® assay to evaluate the anti-proliferation efficacy of compounds. […] The compounds were serially diluted 4-fold in DMSO to obtain 9 concentrations, and then further diluted with DMEM (10% FBS+2.5% horse serum+1% penicillin/streptomycin) cell culture medium to obtain the working solutions (2×), 15 μL of each working solution was added to the cell culture supernatant in each well, and the cells were further incubated for 3 days at 37° C. with 5% CO2. The plate was then equilibrated with CellTiter-Glo® reagent at room temperature (25° C.) for 30 minutes. After adding 25 μL of CellTiter-Glo®, reagent, the cells were thoroughly mixed with the CellTiter-Glo® reagent using a microplate shaker for 2 minutes, and then incubated at room temperature for at least 30 minutes. […] Data were analyzed using GraphPad Prism for IC50 values (Note: The negative control refers to the group without inhibitor).

[2] = tested on: NCI-H358 cells (KRAS G12C mutant); assay: NCI-H358 cell proliferation inhibition (CellTiter-Glo); format: cell-based; conditions: H358 cells (G12C mutation), 3 days, Table 6, read-out: NCI-H358 (IC50)
PI3Kα = PI3Kα (Homo sapiens (Human), UniProt P42336); assay: Inhibition of PI3Kα efficacy assay (ADP-Glo kinase assay); format: biochemical; conditions: read-out: PI3Kα inhibitory activity (IC50)
Sequence of PI3Kα (P42336 whole entry): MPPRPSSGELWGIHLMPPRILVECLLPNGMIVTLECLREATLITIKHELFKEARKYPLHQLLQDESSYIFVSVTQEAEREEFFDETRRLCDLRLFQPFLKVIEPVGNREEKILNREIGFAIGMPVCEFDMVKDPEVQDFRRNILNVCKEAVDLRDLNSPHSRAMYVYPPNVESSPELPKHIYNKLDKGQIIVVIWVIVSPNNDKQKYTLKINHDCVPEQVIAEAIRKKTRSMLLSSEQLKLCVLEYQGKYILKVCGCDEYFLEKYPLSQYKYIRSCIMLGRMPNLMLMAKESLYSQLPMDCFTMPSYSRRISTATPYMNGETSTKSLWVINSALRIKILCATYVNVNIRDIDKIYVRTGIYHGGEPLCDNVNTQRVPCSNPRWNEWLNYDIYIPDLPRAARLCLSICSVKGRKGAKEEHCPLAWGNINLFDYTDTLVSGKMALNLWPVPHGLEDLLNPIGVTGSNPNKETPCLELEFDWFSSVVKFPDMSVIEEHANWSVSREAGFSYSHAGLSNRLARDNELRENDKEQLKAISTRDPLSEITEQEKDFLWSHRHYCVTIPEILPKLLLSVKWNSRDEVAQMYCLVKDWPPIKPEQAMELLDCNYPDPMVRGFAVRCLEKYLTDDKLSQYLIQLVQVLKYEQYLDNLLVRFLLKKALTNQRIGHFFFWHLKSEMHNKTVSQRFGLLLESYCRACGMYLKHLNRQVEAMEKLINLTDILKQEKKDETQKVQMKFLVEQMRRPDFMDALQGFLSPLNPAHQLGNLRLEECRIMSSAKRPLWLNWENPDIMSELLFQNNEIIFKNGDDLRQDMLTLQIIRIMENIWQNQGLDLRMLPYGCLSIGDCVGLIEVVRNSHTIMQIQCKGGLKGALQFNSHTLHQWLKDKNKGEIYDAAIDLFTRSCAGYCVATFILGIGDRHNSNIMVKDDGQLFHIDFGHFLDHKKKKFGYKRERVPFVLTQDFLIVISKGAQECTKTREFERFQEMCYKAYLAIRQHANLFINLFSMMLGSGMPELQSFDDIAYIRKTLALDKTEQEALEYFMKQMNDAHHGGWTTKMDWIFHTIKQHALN
Sequence of PI3Kα (P27986 whole entry partner): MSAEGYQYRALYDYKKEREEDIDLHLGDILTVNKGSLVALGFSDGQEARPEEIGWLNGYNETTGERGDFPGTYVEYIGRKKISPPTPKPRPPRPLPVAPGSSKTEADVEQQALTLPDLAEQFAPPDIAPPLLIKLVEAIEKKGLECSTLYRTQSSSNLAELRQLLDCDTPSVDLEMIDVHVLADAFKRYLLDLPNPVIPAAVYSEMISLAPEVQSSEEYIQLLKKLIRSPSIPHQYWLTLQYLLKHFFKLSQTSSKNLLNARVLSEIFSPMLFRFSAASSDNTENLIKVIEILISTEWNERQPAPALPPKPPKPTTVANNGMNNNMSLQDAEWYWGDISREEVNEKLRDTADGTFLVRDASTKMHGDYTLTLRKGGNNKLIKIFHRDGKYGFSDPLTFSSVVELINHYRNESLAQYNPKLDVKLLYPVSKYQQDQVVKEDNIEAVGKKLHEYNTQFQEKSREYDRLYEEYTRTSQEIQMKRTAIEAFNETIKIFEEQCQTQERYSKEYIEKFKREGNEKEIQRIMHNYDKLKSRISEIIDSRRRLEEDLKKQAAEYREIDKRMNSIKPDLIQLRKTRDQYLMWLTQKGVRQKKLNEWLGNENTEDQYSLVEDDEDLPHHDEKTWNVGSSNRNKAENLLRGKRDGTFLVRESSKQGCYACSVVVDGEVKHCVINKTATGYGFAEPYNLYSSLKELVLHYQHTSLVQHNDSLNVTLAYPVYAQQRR
In short: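 ADP-Glo luminescent detection of ADP from PI3Kα acting on PI substrate with ATP, 60 min at RT; compounds in 8-point five-fold serial dilution from 2 mM DMSO stock. IC50 from four-parameter variable-slope fit.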

PI3Kδ = PI3Kδ (Homo sapiens (Human), UniProt O00329); assay: Inhibition of PI3Kδ efficacy assay (ADP-Glo kinase assay); format: biochemical; conditions: read-out: PI3Kδ inhibitory activity (IC50)
Sequence of PI3Kδ (O00329 whole entry): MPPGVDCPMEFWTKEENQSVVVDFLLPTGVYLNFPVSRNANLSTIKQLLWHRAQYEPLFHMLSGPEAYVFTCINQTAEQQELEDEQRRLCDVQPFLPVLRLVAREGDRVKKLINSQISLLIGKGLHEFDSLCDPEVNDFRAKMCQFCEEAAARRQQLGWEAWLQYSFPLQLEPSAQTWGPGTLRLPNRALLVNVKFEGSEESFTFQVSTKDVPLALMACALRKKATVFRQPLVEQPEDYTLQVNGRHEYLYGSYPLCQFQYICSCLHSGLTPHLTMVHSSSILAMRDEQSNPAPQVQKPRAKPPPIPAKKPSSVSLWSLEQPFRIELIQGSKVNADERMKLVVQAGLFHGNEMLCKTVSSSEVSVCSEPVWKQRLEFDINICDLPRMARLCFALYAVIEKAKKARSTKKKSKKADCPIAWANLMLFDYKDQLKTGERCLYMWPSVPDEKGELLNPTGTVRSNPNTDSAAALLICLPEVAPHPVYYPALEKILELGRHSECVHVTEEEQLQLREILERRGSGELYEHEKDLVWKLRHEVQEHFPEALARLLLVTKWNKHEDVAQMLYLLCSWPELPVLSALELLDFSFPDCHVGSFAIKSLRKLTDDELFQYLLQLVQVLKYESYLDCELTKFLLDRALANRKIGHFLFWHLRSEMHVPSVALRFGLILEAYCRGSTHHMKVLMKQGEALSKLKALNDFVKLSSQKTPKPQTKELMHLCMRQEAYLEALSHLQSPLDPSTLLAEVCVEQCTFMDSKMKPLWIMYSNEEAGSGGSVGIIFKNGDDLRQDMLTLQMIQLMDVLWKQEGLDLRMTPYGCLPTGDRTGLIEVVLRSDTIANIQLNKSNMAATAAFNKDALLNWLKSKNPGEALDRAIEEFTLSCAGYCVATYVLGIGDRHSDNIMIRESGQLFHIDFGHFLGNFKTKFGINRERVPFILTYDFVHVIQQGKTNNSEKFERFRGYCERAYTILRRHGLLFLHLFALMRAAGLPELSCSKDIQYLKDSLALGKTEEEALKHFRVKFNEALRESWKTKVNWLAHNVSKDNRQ
Sequence of PI3Kδ (P27986 whole entry partner): as the sequence (P27986 whole entry partner) above
Description: Test Example 2: Inhibition of PI3Kδ Efficacy assay The ADP-Glo™ kinase assay was used to assess the inhibition of PI3Kδ with our compounds. The utilized proteins and assay reagents were obtained from the ADP-Glo™ Kinase Assay Kit (Promega). Initially, a 2 mM stock solution of the test compound (dissolved in DMSO) was serially diluted in five-fold concentrations using DMSO to obtain eight working solutions 1 (200×) Subsequently, each of the eight working solutions 1 was further diluted in a 20-fold gradient by adding 5 μL into 95 μL of ddH2O, resulting in eight working solutions 2 (10×). […] Subsequently, 2 μL of 2.5×PI and ATP solution mixture were added to each well, mixed, and incubated at RT for 60 minutes. Then, 5 μL of ADP-Glo (containing 10 mM MgCl2) reagent was added to each well, mixed, and incubated at RT for 40 minutes. Finally, 10 μL of the Kinase Detection Reagent was added to each well, mixed, and incubated at RT for 40 minutes. Luminescence values were recorded using a multi-mode microplate reader with luminescence channel settings, and the inhibitory rate was calculated using the following formula: [formula] Data were analyzed using GraphPad Prism with log(inhibitor) vs. response—Variable Slope(four parameters) fitting calculations for IC50 values.

SMILES	pIC50 [1]	pIC50 ([2]; Homo sapiens, NCI-H358, 72 h)	pIC50 (PI3Kα; Table 2)	pIC50 (PI3Kδ; Table 2)	pIC50 (PI3Kα; Table 1)	pIC50 (PI3Kδ; Table 1)	pIC50 [2]
COc1ncc(-c2ccc3ncnc(N4CC5CCC(C4)N5C(=O)/C=C/C(C)=O)c3n2)cc1NS(=O)(=O)c1c(F)cccc1F [Example 137, 2,6-difluoro-N-(2-methoxy-5-(4-(8-((E)-4-oxopent-2-enoyl)-3,8-diazabicyclo[3.2.1]octan-3-yl)pyrido[3,2-d]pyrimidin-6-yl)pyridin-3-yl)benzenesulfonamide]	8.17	–	–	–	–	–	–
COc1ncc(-c2ccc3ncnc(N4CCN(C(=O)/C=C/C(C)=O)CC4)c3n2)cc1NS(=O)(=O)c1ccc(F)cc1 [Example 134, (E)-4-fluoro-N-(2-methoxy-5-(4-(4-(4-oxopent-2-enoyl)piperazin-1-yl)pyrido[3,2-d]pyrimidin-6-yl)pyridin-3-yl)benzenesulfonamide]	7.71	–	–	–	–	–	–
COc1ncc(-c2ccc3ncnc(N4CCC5(CC4)CN(C(=O)/C=C/C(C)=O)C5)c3n2)cc1NS(=O)(=O)c1c(F)cccc1F [Example 136, (E)-2,6-difluoro-N-(2-methoxy-5-(4-(2-(4-oxopent-2-enoyl)-2,7-diazaspiro[3.5]nonan-7-yl)pyrido[3,2-d]pyrimidin-6-yl)pyridin-3-yl)benzenesulfonamide]	8.18	–	–	–	–	–	–
CCc1ncc(-c2ccc3ncnc(N4CCN(C(=O)/C=C/C(C)=O)CC4)c3c2)cc1NS(=O)(=O)c1ccc(F)cc1F [Example 83, (E)-N-(2-ethyl-5-(4-(4-(4-oxopent-2-enoyl)piperazin-1-yl)quinazolin-6-yl)pyridin-3-yl)-2,4-difluorobenzenesulfonamide]	–	6.34	8.21	7.75	–	–	–
COc1ncc(-c2ccc3ncnc(N4CCN(C(=O)/C=C/C(C)=O)C[C@@H]4C)c3n2)cc1NS(=O)(=O)c1c(F)cccc1F [Example 138, (S,E)-2,6-difluoro-N-(2-methoxy-5-(4-(2-methyl-4-(4-oxopent-2-enoyl)piperazin-1-yl)pyrido[3,2-d]pyrimidin-6-yl)pyridin-3-yl)benzenesulfonamide]	7.98	–	–	–	–	–	–
C=C(F)C(=O)N1CCN(c2ncnc3ccc(-c4cnc(OC)c(NS(=O)(=O)c5ccc(F)cn5)c4)cc23)CC1 [Example 120, 5-fluoro-N-(5-(4-(4-(2-fluoroacryloyl)piperazin-1-yl)quinazolin-6-yl)-2-methoxypyridin-3-yl)pyridine-2-sulfonamide]	–	7.02	8.52	7.94	–	–	–
COc1ncc(-c2ccc3ncnc(NC4CCN(C(=O)/C=C/C(C)=O)CC4)c3c2)cc1NS(=O)(=O)c1ccc(F)cc1F [Example 130, (E)-2,4-difluoro-N-(2-methoxy-5-(4-((1-(4-oxopent-2-enoyl)piperidin-4-yl)amino)quinazolin-6-yl)pyridin-3-yl)benzenesulfonamide]	–	6.35	8.59	7.82	–	–	–
C=C1CCN(C2CN(c3ncnc4ccc(-c5cnc(OC)c(NS(=O)(=O)c6ccc(F)cc6F)c5)cc34)C2)C1=O [Example 125]	–	–	8.30	7.77	–	–	7.01
CC(=O)/C=C/C(=O)N1CCN(c2ncnc3ccc(-c4cnc(Cl)c(NS(=O)(=O)c5ccc(Cl)s5)c4)cc23)CC1 [Example 36, (E)-5-chloro-N-(2-chloro-5-(4-(4-(4-oxopent-2-enoyl)piperazin-1-yl)quinazolin-6-yl)pyridin-3-yl)thiophene-2-sulfonamide]	–	6.56	–	–	7.67	6.86	–
COc1ncc(-c2ccc3ncnc(N4CCC5(CC=CC5=O)CC4)c3c2)cc1NS(=O)(=O)c1c(F)cccc1F [Example 71, 2,6-difluoro-N-(2-methoxy-5-(4-(1-oxo-8-azaspiro[4,5]dec-2-en-8-yl)quinazolin-6-yl)pyridin-3-yl)benzenesulfonamide]	–	7.12	8.68	7.50	–	–	–
C=CC(=O)N1CCN(c2ncnc3ccc(-c4cnc(OC)c(NS(=O)(=O)c5ccccc5)c4)cc23)CC1 [Example 24, N-(5 (4-(4-acryloylpiperazin-1-yl)quinazolin-6-yl)-2-methoxypyridin-3-yl)benzenesulfonamide]	–	6.91	–	–	8.54	8.20	–

Continued by rising pIC50 ([2]; Homo sapiens, NCI-H358, 72 h), values first:

pIC50 [1]	pIC50 ([2]; Homo sapiens, NCI-H358, 72 h)	pIC50 (PI3Kα; Table 2)	pIC50 (PI3Kδ; Table 2)	pIC50 (PI3Kα; Table 1)	pIC50 (PI3Kδ; Table 1)	SMILES	pIC50 [2]
–	7.24	8.54	7.94	–	–	C=C(F)C(=O)N1CCN(c2ncnc3ccc(-c4cnc(OC)c(NS(=O)(=O)c5ccc(F)cc5F)c4)cc23)C[C@@H]1CC#N [Example 113, (S)-N-(5-(4-(3-(cyanomethyl)-4-(2-fluoroacryloyl)piperazin-1-yl)quinazolin-6-yl)-2-methoxypyridin-3-yl)-2,4-difluorobenzenesulfonamide]	–
–	7.30	–	–	8.03	7.11	C=CC(=O)N1CC2(CCN(c3ncnc4ccc(-c5cnc(OC)c(NS(=O)(=O)c6ccc(F)cc6F)c5)cc34)C2)C1 [Example 12, N-(5-(4-(2-acryloyl-2,6-diazaspiro[3.4]octan-6-yl)quinazolin-6-yl)-2-methoxypyridin-3-yl)-2,4-difluorobenzenesulfonamide]	–
–	7.46	8.66	7.60	–	–	C=C(F)C(=O)N1CC2(CCN(c3ncnc4ccc(-c5cnc(OC)c(NS(=O)(=O)c6c(F)cccc6F)c5)cc34)CC2)C1 [Example 47, 2,6-difluoro-N-(5-(4-(2-(2-fluoroacryloyl)-2,7-diazaspiro[3.5]nonan-7-yl)quinazolin-6-yl)-2-methoxypyridin-3-yl) benzenesulfonamide]	–
–	7.46	8.60	7.78	–	–	COc1ncc(-c2ccc3ncnc(N4CCN(C(=O)C5=CC(=O)CCC5)CC4)c3c2)cc1NS(=O)(=O)c1ccc(Cl)s1 [Example 73, 5-chloro-N-(2-methoxy-5-(4-(4-(3-oxocyclohexane-1-en-1-carbonyl)piperazin-1-yl)quinazoline-6-yl)pyridin-3-yl)thiophene-2-sulfonamide]	–
–	7.52	8.72	7.48	–	–	C=C(F)C(=O)N1CC(N2CCN(c3ncnc4ccc(-c5cnc(OC)c(NS(=O)(=O)c6ccc(F)cc6F)c5)cc34)CC2)C1 [Example 57, 2,4-difluoro-N-(5-(4-(4-(1-(2-fluoroacryloyl)azetidin-3-yl)piperazin-1-yl)quinazolin-6-yl)-2-methoxypyridin-3-yl)benzenesulfon-amide]	–
–	7.58	8.74	7.63	–	–	COc1ncc(-c2ccc3ncnc(N4CCN(C(=O)C5=CC(=O)CC5)CC4)c3c2)cc1NS(=O)(=O)c1ccc(F)cc1F [Example 74, 2,4-difluoro-N-(2-methoxy-5-(4-(4-(3-oxocyclopent-1-ene-1-carbonyl)piperazin-1-yl)quinazolin-6-yl)pyridin-3-yl)benzenesulfonamide]	–
–	7.82	7.93	7.90	–	–	COc1ncc(-c2ccc3ncnc(N4CCN(C(=O)/C=C/c5ncco5)CC4)c3c2)cc1NS(=O)(=O)c1ccc(F)cc1F [Example 62, (E)-2,4-difluoro-N-(2-methoxy-5-(4-(4-(3-(oxazol-2-yl)acryloyl)piperazin-1-yl)quinazolin-6-yl)pyridin-3-yl) benzene-sulfonamide]	–
–	7.84	8.23	7.61	–	–	COc1ncc(-c2ccc3ncnc(N4CCN(C(=O)C5=CC(=O)CCC5)CC4)c3c2)cc1NS(=O)(=O)c1ccc(F)cc1F [Example 72, 2,4-difluoro-N-(2-methoxy-5-(4-(4-(3-oxocyclohex-1-ene-1-carbonyl)piperazin-1-yl)quinazolin-6-yl)pyridin-3-yl)benzenesulfonamide]	–
–	7.90	7.78	7.84	–	–	COC/C=C/C(=O)N1CCN(c2ncnc3ccc(-c4cnc(OC)c(NS(=O)(=O)c5ccc(F)cc5F)c4)cc23)CC1 [Example 64, (E)-2,4-difluoro-N-(2-methoxy-5-(4-(4-(4-methoxybut-2-enoyl)piperazin-1-yl)quinazolin-6-yl)pyridin-3-yl) benzene-sulfonamide]	–
